The source of these data is publication PMC5529018, “Discovery of novel brain permeable and G protein-biased beta-1 adrenergic receptor partial agonists for the treatment of neurocognitive disorders” (PLoS ONE, 2017).

In data set [1] the test system is LPS-induced TNFα response. The experiment in a line: In vivo LPS assay. The following applies: 90 min post-LPS. The arrangement: species or system C57Bl/6J mice. On the procedure: ; subcutaneous; […]; intraperitoneal; n = 4) or vehicle (5% DMSO/20%PEG400/water; intraperitoneal; n = 12) 15 min prior to LPS (50 ug/kg; intraperitoneal). A control group was injected with vehicle 15 minutes prior to saline (n = 18). Following injections, mice were single-housed. At 90 min post-LPS/saline, mice were deeply anesthetized with isoflurane and blood was collected from the right ventricle via cardiac puncture (23 g needle) into lithium heparin-containing vials (BD microtainer plasma tubes). Subsequently, brains were collected after perfusion with phosphate-buffered saline. Plasma was separated by centrifugation (11,000 rpm for 3 minutes) within 60 min of collection and stored at -80°C until analysis. The concentration of TNFα in the collected plasma was measured by ELISA (Invitrogen, KMC3012) according to the manufacturer’s instruction. The LPS-induced inflammatory response in the CNS was assessed by measuring mRNA expression for genes related to neuroimmune activation in brain tissue according to the previously reported method. Briefly, total RNA was extracted from hippocampus containing coronal sections using the RNeasy Lipid Tissue Mini Kit (Qiagen), and transcribed into cDNA (Superscript III, Invitrogen). PCR was performed in duplicate using TaqMan gene expression assays, TNFα (Mm00443258_m1), IL1b (Mm00434228_m1), IL6 (Mm00446190_m1), and glyceraldehyde-3-phosphate dehydrogenase (GAPDH; Mm99999915_g1). Fold changes of expression relative to control were determined after normalization to GAPDH. Relative quantification and fold change were calculated by the comparative CT method. Brain uptake of STD-101-D1 was determined in brain tissue. […]

The nature of data set [2]: Pharmacokinetic study 2, 20-min post-dose collection. In kind it is in vivo, Sprague-Dawley rats. The conditions noted are these: Sprague-Dawley, brain, rat, single administration. The text has this:
Two cohorts of Sprague-Dawley rats were used in two independent studies. All animals were fasted overnight before the experiment with free access to water. In study 1, a total of 18 rats were used for a 4 hr time course pharmacokinetic (PK) study. Rats were anesthetized with 3% isoflurane and catheters were implanted into the jugular and/or portal veins for compound administration and/or blood sampling at 1 to 2 days prior to the experiments as previously described. […] Four hours post-dose, rats were deeply anesthetized with isoflurane and blood samples were collected by cardiac puncture. In study 2, a total of 18 rats were used for a 20 min post-dose collection study. […] At 20 min post-dose, rats were deeply anesthetized with isoflurane and blood samples were collected by cardiac puncture. Brains were collected after perfusion with phosphate buffered saline. All plasma samples were immediately separated after collection by centrifugation (11,000 rpm for 3 minutes) and stored at −80°C until analysis. […] Tulobuterol was used as the internal standard. The flow rate was set to 0.45 ml/min. Column temperature was 25°C. […] The injection volume was 20 μl. The mass spectrometer was operated in the positive mode with multiple-reaction monitoring (MRM). […] Mobile phase A consisted of 10 mM ammonium acetate and 0.1% formic acid in LCMS grade water. Mobile phase B consisted of 10 mM ammonium acetate and 0.1% formic acid in LCMS grade acetonitrile:water 90:10% (v/v). […] Five μl of the extracted samples were injected. […] Data acquisition and analysis were performed using the Analyst 1.6.1 software (AB SCIEX, CA).

The nature of data set [3]: Cardiovascular studies (heart rate, blood pressure). In kind it is in vivo, Sprague-Dawley rats. The conditions noted are these: anesthetized rats, 3 mg/kg subcutaneous. How it is done: A polyethylene catheter (PE50) filled with heparinized saline was then inserted into the tail artery and connected to the blood pressure transducer system. After ensuring the absence of any air bubbles, 5–10 min of baseline systolic and diastolic blood pressure along with heart rate measurements were recorded using LabChart Pro (AD Instruments, CO).

In the next data set the target is ADR- Alpha 1A (Homo sapiens, UniProt P35348). Put plainly: Radioligand binding ADR Alpha 1A. The conditions noted are these: S2 Table; hot ligand [3H] Prazosin; read-out: Binding Affinity Ki.
A further data set addresses 5-HT 1D (Homo sapiens, UniProt P28221). Put plainly: Radioligand binding 5-HT 1D. The conditions noted are these: S2 Table; hot ligand [3H]GR125743; read-out: Binding Affinity Ki.
In the next data set the target is 5-HT 2B (Homo sapiens, UniProt P41595). Put plainly: Radioligand binding 5-HT 2B. The following applies: S2 Table; hot ligand [3H]LSD; read-out: Binding Affinity Ki.
Another data set deals with 5-HT 2C (Homo sapiens, UniProt P28335). Put plainly: Radioligand binding 5-HT 2C. The following applies: S2 Table; hot ligand [3H]Mesulergine; read-out: Binding Affinity Ki.
For data set [4], the system named is PBR (peripheral benzodiazepine receptor). Put plainly: Radioligand binding PBR. The conditions noted are these: S2 Table; hot ligand [3H]PK11195.
The next data set has as its target Sigma 1 receptor (Homo sapiens, UniProt Q99720). The experiment in a line: Radioligand binding Sigma 1 receptor. The following applies: S2 Table; hot ligand [3H]Pentazocine(+); read-out: Binding Affinity Ki.

Sequence of 5-HT 2C (P28335 33-458, species assumed): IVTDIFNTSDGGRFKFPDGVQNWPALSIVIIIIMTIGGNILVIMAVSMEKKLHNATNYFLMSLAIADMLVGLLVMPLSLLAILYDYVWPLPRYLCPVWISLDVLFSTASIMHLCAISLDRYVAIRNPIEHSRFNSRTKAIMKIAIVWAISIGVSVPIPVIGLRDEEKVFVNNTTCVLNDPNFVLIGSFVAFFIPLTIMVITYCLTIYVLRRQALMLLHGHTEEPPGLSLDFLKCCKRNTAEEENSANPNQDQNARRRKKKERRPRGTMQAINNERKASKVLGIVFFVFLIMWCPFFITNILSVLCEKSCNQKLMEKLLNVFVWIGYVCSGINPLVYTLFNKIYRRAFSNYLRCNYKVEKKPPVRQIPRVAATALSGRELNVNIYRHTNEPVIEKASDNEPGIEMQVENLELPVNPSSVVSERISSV
Sequence of ADR- Alpha 1A (P35348 whole entry): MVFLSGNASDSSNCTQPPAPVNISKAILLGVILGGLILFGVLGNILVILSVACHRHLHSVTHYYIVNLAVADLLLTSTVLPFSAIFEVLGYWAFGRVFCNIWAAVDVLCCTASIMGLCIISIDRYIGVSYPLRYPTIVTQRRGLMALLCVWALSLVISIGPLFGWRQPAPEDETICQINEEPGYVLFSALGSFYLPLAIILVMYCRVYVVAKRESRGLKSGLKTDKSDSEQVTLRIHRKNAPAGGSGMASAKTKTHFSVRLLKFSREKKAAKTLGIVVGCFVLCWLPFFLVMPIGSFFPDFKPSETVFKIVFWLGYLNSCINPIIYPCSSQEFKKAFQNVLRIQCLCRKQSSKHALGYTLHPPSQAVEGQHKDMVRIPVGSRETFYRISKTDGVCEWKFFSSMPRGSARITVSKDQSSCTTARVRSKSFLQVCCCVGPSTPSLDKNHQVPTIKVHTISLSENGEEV
Sequence of 5-HT 2B (P41595 whole entry, species assumed): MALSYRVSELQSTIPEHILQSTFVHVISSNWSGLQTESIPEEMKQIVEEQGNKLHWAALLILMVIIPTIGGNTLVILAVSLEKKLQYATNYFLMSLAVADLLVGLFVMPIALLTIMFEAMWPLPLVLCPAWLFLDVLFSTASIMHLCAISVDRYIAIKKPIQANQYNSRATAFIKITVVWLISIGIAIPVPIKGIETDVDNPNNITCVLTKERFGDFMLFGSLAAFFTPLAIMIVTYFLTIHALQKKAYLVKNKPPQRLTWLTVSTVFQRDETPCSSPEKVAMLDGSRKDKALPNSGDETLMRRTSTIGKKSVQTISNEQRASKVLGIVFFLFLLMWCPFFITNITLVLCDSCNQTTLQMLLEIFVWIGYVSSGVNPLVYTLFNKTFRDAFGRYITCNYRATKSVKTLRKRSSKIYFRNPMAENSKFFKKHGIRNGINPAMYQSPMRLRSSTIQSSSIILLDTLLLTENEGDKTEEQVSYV
Sequence of 5-HT 1D (P28221 whole entry, species assumed): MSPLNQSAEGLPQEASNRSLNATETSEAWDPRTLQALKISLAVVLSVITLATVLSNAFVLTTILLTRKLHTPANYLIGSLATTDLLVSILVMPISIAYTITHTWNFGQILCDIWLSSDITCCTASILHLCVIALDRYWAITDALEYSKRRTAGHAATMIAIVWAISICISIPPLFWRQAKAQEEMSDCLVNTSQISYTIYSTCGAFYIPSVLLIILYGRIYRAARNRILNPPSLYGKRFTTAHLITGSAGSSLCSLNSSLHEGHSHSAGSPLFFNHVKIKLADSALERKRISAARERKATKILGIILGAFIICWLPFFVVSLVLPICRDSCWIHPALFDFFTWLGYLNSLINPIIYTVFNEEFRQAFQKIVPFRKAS
Sequence of Sigma 1 receptor (Q99720 whole entry, species assumed): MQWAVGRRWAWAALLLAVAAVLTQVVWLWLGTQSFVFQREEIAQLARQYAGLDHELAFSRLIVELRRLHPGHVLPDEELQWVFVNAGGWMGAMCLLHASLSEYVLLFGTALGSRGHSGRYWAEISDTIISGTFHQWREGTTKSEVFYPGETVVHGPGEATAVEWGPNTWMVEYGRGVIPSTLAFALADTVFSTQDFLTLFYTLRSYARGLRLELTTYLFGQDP

For the molecule `COc1ccccc1OCCNC[C@H](O)COc1ccc(O)cc1.COc1ccccc1OCCNC[C@H](O)COc1ccc(O)cc1.O=C(O)/C=C/C(=O)O` [STD-101-D1, (S)-4-(2-hydroxy-3-((2-(2-methoxyphenoxy)ethyl)amino)propoxy)phenol hemifumarate], the “LPS-induced systemic (plasma) TNFα response” value in data set [1] (3 mg/kg pre-treatment 15 min prior to LPS) is given as “markedly inhibited”. For the same molecule, in [1] (3 mg/kg pre-treatment), the “CNS IL-1β (mRNA) after LPS” value is recorded as “trend for attenuation”. Further, the “CNS IL-6 (mRNA) after LPS” value in data set [1] (3 mg/kg pre-treatment) is reported as “no effect”. Also, in [1] (3 mg/kg pre-treatment), the “LPS-induced inflammatory TNFα response in the brain (mRNA)” value is “attenuated”. Besides, the concentration at 20 min was 288 nM in data set [2] (ip, 10 mg/kg intraperitoneally) and 2500 nM in data set [2] (iv, 10 mg/kg intravenously). For the same molecule, the “decrease in blood pressure” value in [3] came out at 46%. In [3], the “increase in heart rate” value is recorded as 13%. Besides, the Ki on ADR- Alpha 1A turned out to be 0.017 µM; at 5-HT 1D, 0.149 µM; at 5-HT 2B, 0.025 µM; on 5-HT 2C, 1.15 µM; on Sigma 1 receptor, 0.146 µM. Moreover, the “Binding Affinity Ki” value in [4] is “- (< 50% inhibition of radioligand binding at 10 μM STD-101-D1)”.
